The values that follow come from patent EP1792623B1, “Use of extracts and constituents of leontopodium as enhancers of cholinergic function” (Leopold-Franzens-Universität Innsbruck, priority 2005, dated 2007).

Where a name gives a salt, the structure may show the parent alone. Read-outs that look alike come from different tables or passages of the source.

For one experiment, the system named is acetylcholinesterase. In kind it is biochemical. To be noted: after 60 min, in comparison to medium control. The method, then:
Experiments are carried out applying Ellman's method in a 96-well microplate assay described by Ingkaninan et al, Journal of Chromatography A 827 (2000) p. 6173 and Rhee et al, Journal of Chromatography A 915 (2001) p. 217-223. In addition to buffer A described above, a buffer containing 0.1 M NaCl and 0.02 M MgClx2.6 H2O in buffer A is used for preparing a 3 mM solution of DTNB. For the microplate assay the substrate ATCI is dissolved 15 mM in water (HPLC grade). The enzyme stock solution is diluted with buffer A to get 0.22 U/ml. In the 96-well plates, 25 µl of 15 mM ATCl, 125 µl of 3 mM DTNB, 50 µl of buffer A, and 25 µl of sample (10 mM in MeOH, respectively DMSO (dimethylsulfoxide), diluted ten times with buffer A) are added. […] […] The absorbance of the product (2-nitrobenzoate-5-mercapto thioline) is measured at 405 nm with a Chameleon 5025 (Hidex, Finland) microplate reader 0, 15, 30, 45 and 60 minutes after adding 25 µl of 0.22 U/ml acetylcholinesterase-solution to the reaction mixture. All experiments are performed 4 times (n=4) and the data are statistically processed using the SPSS 11.5 program package. Percentage of inhibition is calculated by comparing the rates for the sample to the blank (10% MeOH, resp. DMSO, in buffer).

Experiment [1] deals with C56BL/6N female, 3-month mice. Kind of experiment: Object recognition task (scopolamine-induced learning deficit). In kind it is in vivo. The protocol: (§1) Animals: C56BL/6N female, 3-month mice, weighing 20 - 27 g, were used in the present study. The animals were housed in groups of six to ten in cages (40 (L) x 25 (W) x 15 (H) cm) placed in a room at a constant temperature (22±1 °C), 12-light/ 12-dark cycle (07:00-19:00 h), with food and water ad libitum. Experiments were conducted between 09:00 and 16:00h.
(§2) Surgery: Mice were anaesthetized with Pentobarbital sodium (60 mg/kg, i.p.) and placed in a stereotaxic frame. A guide cannula (gauge 25, o.d. 0.52 mm, i.d, 0.26 mm and 7 mm long) was stereotaxically implanted through a hole on the skull into the brain area 0.5 mm higher than the third cerebral ventricle (-0.1 mm posterior, 0.8 mm lateral to bregma, -2.2 mm ventral to the dura) (Franklin KBJ, Paxinos G (1997) The mouse brain in stereotaxic coordinates. Academic Press San Diego). Guide cannula was secured to the skull using two small screws and dental cement. The microinjector (Hamilton gauge 32, o.d. 0.24 mm and i.d. 0.11 mm, 7.5 mm long) protruded 0.5 mm from the tip of the guide cannula to reach the cerebral ventricle. Mice recovered for 5 days before any experimentation was done.
(§3) Drugs: Scopolamine hydrobromide (Sigma, St. Louis, MO, U.S.A.) was dissolved in saline. Isocomene was dissolved in vehicle solution (3 parts DMSO : 7 parts sterile water). The animals were randomly divided into experimental groups and administered a cerebral ventricle injection of saline, scopolamine, isocomene or scopolamine and isocomene in a volume µl during 1 min. The injector was left in place an extra 1 min for drug diffusion after injection. These substances and vehicle were injected 15 min prior to the test.
Experimental design and drug application: Animals were randomly divided into […] experimental groups (6-9 mice per group) as follows: vehicle; scopolamine hybrobromide 20 µg (50 nmol) in 1µl ICV, isocomene 8.16 µg (40 nmol) in 2µl ICV, and scopolamine hybrobromide 20 µg plus isocomene 2 µg ICV. All substances were injected 15 min before the test (T-maze and open field) or before the training trial T1 (object recognition test) through the 7.5 mm long injector connected with i.d. 0.28 mm polyethylene tubing to 5 µl Hamilton syringe.
Apparatus: The test apparatus consisted of a box made of Plexiglas (40 (L) x 25 (W) x 15 (H) cm), which was illuminated by a lamp above the box. In the different parts of the apparatus, the light intensity was equal at 100 lux. The objects to be discriminated were made of plastic or metal, were in the different shapes: cubes and cylinders 1.5-cm high in white or green colour; they could not be displaced by mice. In addition, these objects had no genuine significance for mice and had never been associated with a reinforcement.
Procedure: The object recognition test was performed as described elsewhere (Ennaceur A, Delacour J (1988) A new one-trial test for neurobiological studies of memory in rats. 1: Behavioural data. Behav Brain Res. 31: 47-59). On the day before testing, the animals were allowed to explore the apparatus for 10 min (without objects), while on the testing day, a session of two 10-min trials was given. During the training trial (sample trial) (T1), two identical objects were placed opposite sides 8 cm from the short walls. A mouse was placed in the middle of apparatus and was left to explore these two identical objects in 10 min. After T1, the mouse was put back in its home cage and a 24-hour inter-trial interval was given. […]

The subject of experiment [2] is C56BL/6N female, 3-month mice. Put plainly: T-maze continuous alternation task. The experiment is classed as in vivo. The protocol: as §1, §2, §3
Experimental design and drug application: Animals were randomly divided into three experimental groups (6-9 mice per group) as follows: vehicle; scopolamine hybrobromide 20 µg (50 nmol) in 1µl ICV, isocomene 8.16 µg (40 nmol) in 2µl ICV, and scopolamine hybrobromide 20 µg plus isocomene 2 µg ICV. […]

The subject of experiment [3] is release of ACh in rat brain. Kind of experiment: ACh release in nucleus accumbens, push-pull technique, after i.c.v. application. In kind it is in vivo, Sprague-Dawley rats. To be noted: 2 µmol i.c.v. The source says: Surgery and push-pull technique: Protocols of experiments were approved by the Bundesministerium für Wissenschaft, Forschung and Kunst, Austria, Kommission für Tierversuchsangelegenheitem. Sprague-Dawley rats (250-280 g) were anaesthetized with urethane 1.2 g/kg. i.p. The head was fixed in a stereotaxic frame and a push-pull cannula (outer tubing: o.d. 0.75 mm, i.d. 0.41 mm; inner tubing: o.d. 0.26 mm, i.d. 0.13 mm) was mounted on a microdrive. This was stereotaxically inserted through a hole in the skull into the nucleus accumbens (coordinates, mm from bregma: AP, +1.2, L, +2.5; V, -7.8) (Paxinos G. Watson H. (1998) The rat brain in stereotaxic coordinates, 4th edn. Academic Press, Sidney.). […] After 1 h of the cannula insertion the samples were collected into tubes kept at -20° C in time periods of 10 min and then stored at -80°C until acetylcholine (ACh) was determined. […]
Determination of acetylcholine (ACh): ACh content in the samples was determined by HPLC with a cation-exchanging analytical column and a post-column reactor followed by electrochemical detection (Damsma et al, 1997; Prast et al; 1998). […] The peroxide was electrochemically detected by a UniJet platin electrode (3mm) at +500 mV with an amperometric detector (BAS LC-4, Bioanalytical Systems, West Lafayette, IN, USA). […] ACh was quantified with external standards that were injected at the beginning and the end of the analysis. […]

Where [4] appears, read: isocomene 8.16 µg ICV in mice given scopolamine 20 µg ICV.
[5] abbreviates: scopolamine 20 µg ICV alone, T2.

As for isocomene, the “inhibition (%)” value in the experiment on acetylcholinesterase (100 µM, n=4) is recorded as 39.6%. Further, in experiment [1] (setting [4]), the discrimination index entry is listed as “potently increased”. Moreover, the exploration ratio entry in experiment [1] (setting [4]) is on record as “potently increased”. Besides, the alternation rate in experiment [2] (8.16 µg isocomene ICV alone, mean ± SEM, control mice 52 ± 2.46 %) is listed as 69.96 ± 2.42%; in experiment [2] (setting [4]), “abolished this effect of scopolamine”.

Take `CN1[C@@H]2C[C@@H](OC(=O)[C@H](CO)c3ccccc3)C[C@H]1[C@@H]1O[C@@H]12` [Scopolamine, Scopolamine hydrobromide]: in experiment [1] (setting [5]), the discrimination index entry is “zero” and the exploration ratio was approximately 1.0. The exploration time result in experiment [1] (scopolamine 20 µg ICV alone, vs vehicle-treated control mice) is recorded as “no significant difference”. The alternation rate result in experiment [2] (scopolamine 20 µg ICV alone) is recorded as “pronounced decrease in alternation rate”.

For the compound 14-acetoxy-isocomene, in the experiment on acetylcholinesterase (c = 100 mM), the “inhibition (%)” value was 1.4 ± 8.1%. In experiment [3], the “release of ACh in rat brain” value is on record as “significantly enhance the concentration of neurotransmitters in the CNS”.
